Measured values reported in patent US11352368B2, “Salt of fused ring pyrimidine compound, crystal form thereof and preparation method therefor and use thereof” (GUANGZHOU MAXINOVEL PHARMACEUTICALS CO., LTD., priority 2018, dated 2022).
≈ marks a conversion by molar mass, not a printed value. Structures can show the parent of a compound that is named as a salt. Where two headings read alike, the source gives them in different places.

How the values were obtained:
[1] = Solubility test of crystal form A and crystal form B in a medium (Example 12); format: physicochemical; settings: for solubility: thermodynamic from solid, read-out: Solubility (calculated by free base of the fused ring pyrimidine compound); for Solubility (calculated by free base of the fused ring pyrimidine compound): in mg/mL (unit assumed); for solubility in pure water compared to free base: versus free base of the fused ring pyrimidine compound
From the text: Example 12 Solubility Test of the Crystal Form A of the Fumarate of Fused Ring Pyrimidine Compound as Shown in Formula 2 and the Crystal Form B of the Adipate of Fused Ring Pyrimidine Compound as Shown in Formula 3 in a Medium

[2] = Dynamic vapor sorption analysis (DVS); format: physicochemical; settings: for XRPD of samples after DVS test: XRPD diffraction peaks before and after DVS test; for DVS weight gain from 0% RH to 95% RH: 25° C., 0% to 95% relative humidity, weight percentage
Experimental: (§1) 10 mg of the crystal form A of the fumarate of fused ring pyrimidine compound as shown in formula 2 was weighed, and dried for 60 min under the condition of a temperature of 25° C. and a humidity of 0% RH, and then the humidity absorption characteristic of the sample was tested when the humidity changed from 0% RH to 95% RH, and the dehumidification characteristic of the sample was tested when the humidity changed from 95% RH to 0% RH. Each step length for the humidity changes was 5% RH, the balance standard was that the weight change rate was less than 0.01%/min within 5 min, and the longest balance time was 2 hours.
as §1, with “form B” for “form A”, “the adipate” for “the fumarate”, “formula 3” for “formula 2”

[3] = Solubility test of the salts in pure water (Example 6); format: physicochemical; settings: for saturated solubility: room temperature, balancing about 20 hours, HPLC; for solubility in pure water compared with the free base: versus free base of the fused ring pyrimidine compound
Experimental: 2.0 mg of sample was precisely weighed into a liquid phase vial, 1.0 mL of purified water was added, the vial was subjected to ultrasonic treatment for about 30 seconds to disperse the samples evenly, then the vial was placed on a Labquaker rotator, and slowly rotated at room temperature for balancing. After balancing for about 20 hours, each vial was removed, and the solution was filtered with 0.45 μm nylon filter membrane. The filtrate was diluted by DMSO or not diluted and then detected by HPLC. At the same time, two parts of fused ring pyrimidine compounds were weighed and dissolved in DMSO to make standard solutions with concentration of 250 μg/mL and 500 μg/mL, respectively. The standard solutions were subjected to the HPLC detection. The sample concentration vs the peak area of HPLC principal component was used for make a standard curve, and the solubility of each sample in pure water was calculated by a external standard method.

[4] = Stability test (total impurities, 20 days); format: physicochemical; settings: for chemical stability in the condition of high temperature and high humidity / stability under light conditions versus the compound of formula 1: 20 days
Experimental: The crystal form A of the fumarate of fused ring pyrimidine compound as shown in formula 2, the crystal form B of the adipate of fused ring pyrimidine compound as shown in formula 3 and the fused ring pyrimidine compound as shown in formula 1 were subjected to tests at a high temperature of 60° C., 25° C./60% RH, 40° C./75% RH and highlight irradiation (4500 lx±500 lx), the test time was 20 days, the sample bottles were placed under different test conditions, and samples were taken at 0 and 20 days to detect the total amount of impurities, and the test results were shown in Table 8 below.

[5] = Pharmacokinetic experiment, single intragastric dose in rats; format: in vivo, SD rats; settings: single dose 10 mg/kg, 0.5% MC and 0.5% Tween80 in water
Experimental: 1) Preparation of animals 9 healthy male SD rats, each with a body weight of 220-230 g, were taken, fed with standard formulated granulated feed for rats at fixed times every day, and fasted for 12 hours before the experiment, and feeding was resumed after 4 hours of administration. Rats were free to drink water before, after and during the experiment. 9 rats were randomly divided into 3 groups.
2) Formulation of drugs: The fused ring pyrimidine compound as shown in formula 1, the crystal form A of the fumarate of fused ring pyrimidine compound as shown in formula 2 and the crystal form B of the adipate of fused ring pyrimidine compound as shown in formula 3 were accurately weighed, and were formulated into a 1 mg/mL solution in water (Wahaha/111830) with 0.5% MC (Fluka/BCBK3534K) and 0.5% Tween80 (TCl/V4FSC), respectively.
3) Intragastric administration with single dose (10 mg/kg): in the first group, rats were intragastrically administered with a solution of the fused ring pyrimidine compound as shown in formula 1, in the second group, rats were intragastrically administered with a solution of the crystal form A of the fumarate of fused ring pyrimidine compound as shown in formula 2, and in the third group, rats were intragastrically administered with a solution of the crystal form B of the adipate of fused ring pyrimidine compound as shown in formula 3.
4) Collection of blood samples: About 150 μL of blood was taken from the fundus venous plexus before administration and 0.083, 0.25, 0.5, 1, 2, 4, 8 and 24 hours after administration from each rat in the three groups, and anticoagulated with K2EDTA, plasma was separated by centrifugation and the supernatant was collected for LC-MS analysis.

[6] = listed as The fumarate of fused ring pyrimidine compound as shown in formula 2
[7] = listed as The phosphate of fused ring pyrimidine compound as shown in formula 4
[8] = listed as The tartrate of fused ring pyrimidine compound as shown in formula 5
[9] = medium intestinal fluid in simulated fed state (FeSSIF)
[10] = medium pH 4 (50 mM phosphate buffer)
[11] = medium pH 6 (50 mM phosphate buffer)

COc1cc(F)ccc1-c1c(C)sc2cnc(Nc3cnn(C4CCNCC4)c3)nc12
solubility ([1]; 50 mM phosphate buffer, pH 6, aqueous buffer, medium pH 6 (50 mM phosphate buffer)): 36 µg/mL (≈ 82.1 µM)
solubility ([1]; FeSSIF, medium intestinal fluid in simulated fed state (FeSSIF)): 1910 µg/mL (≈ 4350 µM)

COc1cc(F)ccc1-c1c(C)sc2cnc(Nc3cnn(C4CCNCC4)c3)nc12 [Example 1]
DVS: Moisture-absorption weight gain at 85% RH [2, 6]: 85% RH: 0.324%
DVS: Moisture-absorption weight gain at 95% RH [2, 6]: 95% RH: 0.404%
XRPD of samples after DVS test [2, 6]: consistent
DVS: Weight loss in drying stage [2, 6]: drying stage: 0.117%
saturated solubility [3]: 170 µg/mL
solubility in pure water compared with the free base [3]: significantly improved

COc1cc(F)ccc1-c1c(C)sc2cnc(Nc3cnn(C4CCNCC4)c3)nc12 [Example 2]
saturated solubility [3]: 520 µg/mL
solubility in pure water compared with the free base [3]: significantly improved

COc1cc(F)ccc1-c1c(C)sc2cnc(Nc3cnn(C4CCNCC4)c3)nc12 [Example 3]
DVS: Moisture-absorption weight gain at 85% RH [2, 7]: 85% RH: 6.95%
DVS: Moisture-absorption weight gain at 95% RH [2, 7]: 95% RH: 12.15%
XRPD of samples after DVS test [2, 7]: consistent
DVS: Weight loss in drying stage [2, 7]: drying stage: 0.752%
saturated solubility [3]: 675 µg/mL
solubility in pure water compared with the free base [3]: significantly improved

COc1cc(F)ccc1-c1c(C)sc2cnc(Nc3cnn(C4CCNCC4)c3)nc12 [Example 4]
DVS: Moisture-absorption weight gain at 85% RH [2, 8]: 85% RH: 8.390%
DVS: Moisture-absorption weight gain at 95% RH [2, 8]: 95% RH: 8.659%
DVS: Weight loss in drying stage [2, 8]: drying stage: 5.88%
saturated solubility [3]: 146 µg/mL
solubility in pure water compared with the free base [3]: significantly improved

COc1cc(F)ccc1-c1c(C)sc2cnc(Nc3cnn(C4CCNCC4)c3)nc12 [The crystal form A of the fumarate of fused ring pyrimidine ]
Impurity content ([4]; Day 0): 0.25%
Impurity content ([4]; Day 20, 25° C/60% RH): 0.25%
Impurity content ([4]; Day 20, 40° C/75% RH): 0.28%
Impurity content ([4]; Day 20, 60° C): 0.25%
Impurity content ([4]; Day 20, Light (4500 lx±500 lx)): 0.46%
chemical stability in the condition of high temperature and high humidity [4]: good chemical stability
stability under light conditions versus the compound of formula 1 [4]: significantly higher
solubility in intestinal fluid (FeSSIF) in simulated fed state, in words ([1]; FeSSIF): high
pH value of sample solution for solubility ([1]; medium Purified water): 7.27
Solubility (calculated by free base of the fused ring pyrimidine compound) ([1]; medium Purified water): 0.126
pH value of sample solution for solubility [1, 9]: 5.19
pH value of sample solution for solubility [1, 10]: 4.33
Solubility (calculated by free base of the fused ring pyrimidine compound) [1, 10]: 0.159
pH value of sample solution for solubility [1, 11]: 5.96
solubility in pure water compared to free base [1]: significantly improved
DVS weight gain from 0% RH to 95% RH [2]: 0.2518%
Blood drug concentration (AUC) [5]: 999 ng·h/mL

COc1cc(F)ccc1-c1c(C)sc2cnc(Nc3cnn(C4CCNCC4)c3)nc12 [The crystal form B of the adipate of fused ring pyrimidine c]
Impurity content ([4]; Day 0): 0.24%
Impurity content ([4]; Day 20, 25° C/60% RH): 0.22%
Impurity content ([4]; Day 20, 40° C/75% RH): 0.22%
Impurity content ([4]; Day 20, 60° C): 0.23%
Impurity content ([4]; Day 20, Light (4500 lx±500 lx)): 0.42%
chemical stability in the condition of high temperature and high humidity [4]: good chemical stability
stability under light conditions versus the compound of formula 1 [4]: significantly higher
pH value of sample solution for solubility ([1]; medium Purified water): 7.09
Solubility (calculated by free base of the fused ring pyrimidine compound) ([1]; medium Purified water): 0.463
pH value of sample solution for solubility [1, 9]: 5.2
Solubility (calculated by free base of the fused ring pyrimidine compound) [1, 9]: 1.46
pH value of sample solution for solubility [1, 10]: 4.85
Solubility (calculated by free base of the fused ring pyrimidine compound) [1, 10]: 0.104
pH value of sample solution for solubility [1, 11]: 6.01
Solubility (calculated by free base of the fused ring pyrimidine compound) [1, 11]: 0.035
solubility in pure water compared to free base [1]: significantly improved
DVS weight gain from 0% RH to 95% RH [2]: 2.751%
Blood drug concentration (AUC) [5]: 1038 ng·h/mL
